# Laboratory results from US20260183396A1, “CXCR3 OVEREXPRESSION IN CAR-NK CELLS PRIMES MIGRATION/HOMING INTO THE TUMOR MICROENVIRONMENT” (DANA-FARBER CANCER INSTITUTE, INC., priority 2022, published 2026).
# Key:
# [1] = system: MPM explants; assay: Dynamic single-cell RNA sequencing of MPM explants; type: cell-based, human
# Protocol: Dynamic single-cell RNA sequencing and data analysis. The previous protocol (Sehgal et al., J. Clin. Invest. 131:e135038 (2021)) was adapted to test S1 explants from MPM PDOTS. […] After 24 hours of treatment in a ULA dish, tumor spheroids were digested with trypsin in a 37° C. incubator for 5 minutes to obtain single-cell suspensions. Cells were loaded onto a 10× chromium instrument (10× Genomics) per manufacturer's instructions. ScRNA libraries were generated using the single cell 3′ reagent kit (10× Genomics) per the user guide. Quality control of the completed libraries was performed using a bioanalyzer high sensitivity DNA kit (Agilent) and then sequenced using the Illumina NextSeq 500 platform.
# Raw sequencing reads were processed using the 10× Genomics CellRanger bioinformatics pipeline v6.0.1. The assembled matrix was then fed into the standard workflow of the R package, Seurat v4.0.4. Genes that were expressed in at least 3 cells, and only cells that expressed at least […], were kept for downstream processing. Additionally, cells expressing more than 7000 genes and cells with more than 10% of UMIs mapping to mitochondrial genes were removed from the analysis. All the samples were prepared and sequenced together on the same platform. The filtered matrix was log-normalized using global scaling in Seurat. UMI and mitochondrial transcript content were used as regression parameters. The normalized matrix was scaled and centered gene-wise, and then underwent dimensionality reduction using principal component analysis (PCA) on the highly varying genes. After visual inspection of the PCA elbow plot, the top 10 PCs were chosen for further analysis. Clustering was performed on the chosen PCs using the shared nearest neighbor algorithm in Seurat with default parameters.
# A Uniform Manifold Approximation and Projection (UMAP) map was computed and plotted with the DimPlot module of Seurat. Cluster differential expression analysis was performed in Seurat using the FindMarkers command using the Wilcoxon rank sum test without thresholds. Contour plots overlayed onto UMAPs were generated with R package ggplot2 (Wickham, Springer-Verlag New York (2016)).
# Cell types were identified based on comparative analysis of the signatures published previously (Han et al., Cell 172:1091-1107 (2018); Muhl et al., Nat. Commun. 11:3953 (2020); Correia et al., Proc. Natl. Acad. Sci. U.S.A. 115:E5980-E5989 (2018); Gueugnon et al., Am. J. Pathol. 178:1033-42 (2011)), as well as marker genes identified in this study, which were used to remove genes ubiquitously expressed across cell subpopulations. Collagen-encoding genes were added to the fibroblast signature.
# [2] = system: MPM tumor cell lines; assay: 3D vascular model of NK cell migration; type: cell-based, human; settings: presence and absence of the vascular barrier
# Protocol: 3D vascular model. To generate the tumor-vascular model, H226 spheroids were mixed with collagen rat tail hydrogel (2.5 mg/ml) and injected into the center gel region of the 3D microfluidic chamber (10-15 μL per each microfluidic chamber). After incubation for 30 minutes at 37° C. in sterile humidity chambers, the side wall of one flanked channel (media channel) was coated with a 150 μg/ml collagen solution in PBS to allow for better adhesion of eCs to the channel. After 15 mins, the channel was washed once with media. To create the 3D vessel, 25 μL cell suspension of 3×10^6 cells/ml human umbilical vein endothelial cells (HUVECs; C2519AS, Lonza) were injected in the media channel coated with collagen. The channel was rotated twice to create a confluent hollow-lumen 3D vessel. To allow the cells to attach to the media-gel interface and form a monolayer, the chip was incubated with cells face down for 15 mins. Next, 50 μL cell suspension was reinjected, and the chip was flipped to cover the upper part of the 3D vascular channel. After 90 mins of incubation in the humidity chamber at 37° C., cell culture media was gently added to both channels and further incubated to form a confluent monolayer. After vessel formation, NK cells (labelled with cell tracker) were added to the 3D vessel at 2:1 E:T ratio. […] NK cell migration+/−vessel was quantified at 24 hours. Image capture and analysis was performed using a fluorescence confocal microscope and processing software. The 3D vascular channels were rinsed in PBS and fixed with 4% PFA for 15 min at room temperature. Cell membranes were permeabilized with 0.1% Triton X-100 for 5 min at room temperature and washed twice with PBS. HUVEC cells were stained for F-actin with green phalloidin (Thermo Fisher Scientific A12379) and Hoechst 33342. Images were captured on a Nikon Eclipse 80i fluorescence microscope equipped with Z-stack (Prior) and CoolSNAP CCD camera (Roper Scientific).
structure (smiles),measurement,setting,value
Nc1ncnc2c1ncn2[C@@H]1O[C@@H]2COP(=O)([S-])O[C@@H]3[C@H](O)[C@@H](COP([O-])(=S)O[C@H]2[C@H]1O)O[C@H]3n1cnc2c(N)ncnc21.[Na+].[Na+] (stereo partly shown) [ADU-S100],BST2 avg log2FC,[1]; 10 μM ADU-S100,2.86
same,C15orf48 avg log2FC,[1]; 10 μM ADU-S100,3.02
same,CCL5 avg log2FC,[1]; 10 μM ADU-S100,2.10
same,CMPK2 avg log2FC,[1]; 10 μM ADU-S100,2.19
same,CXCL1 avg log2FC,[1]; 10 μM ADU-S100,2.20
same,CXCL10 avg log2FC,[1]; 10 μM ADU-S100,3.10
same,CXCL11 avg log2FC,[1]; 10 μM ADU-S100,2.45
same,HES4 avg log2FC,[1]; 10 μM ADU-S100,2.07
same,HLA-B avg log2FC,[1]; 10 μM ADU-S100,2.09
same,HLA-C avg log2FC,[1]; 10 μM ADU-S100,2.08
same,IFI6 avg log2FC,[1]; 10 μM ADU-S100,4.76
same,IFI27 avg log2FC,[1]; 10 μM ADU-S100,4.89
same,IFI30 avg log2FC,[1]; 10 μM ADU-S100,2.24
same,IFI35 avg log2FC,[1]; 10 μM ADU-S100,2.69
same,IFIT1 avg log2FC,[1]; 10 μM ADU-S100,3.89
same,IFIT2 avg log2FC,[1]; 10 μM ADU-S100,3.99
same,IFIT3 avg log2FC,[1]; 10 μM ADU-S100,4.01
same,IFITM1 avg log2FC,[1]; 10 μM ADU-S100,3.42
same,IL1B avg log2FC,[1]; 10 μM ADU-S100,2.23
same,IL1RN avg log2FC,[1]; 10 μM ADU-S100,2.21
same,IL32 avg log2FC,[1]; 10 μM ADU-S100,3.43
same,IRF7 avg log2FC,[1]; 10 μM ADU-S100,2.44
same,ISG15 avg log2FC,[1]; 10 μM ADU-S100,5.19
same,ISG20 avg log2FC,[1]; 10 μM ADU-S100,3.89
same,LAP3 avg log2FC,[1]; 10 μM ADU-S100,2.78
same,LY6E avg log2FC,[1]; 10 μM ADU-S100,3.24
same,MDK avg log2FC,[1]; 10 μM ADU-S100,2.01
same,MX1 avg log2FC,[1]; 10 μM ADU-S100,2.84
same,OAS1 avg log2FC,[1]; 10 μM ADU-S100,3.40
same,OAS3 avg log2FC,[1]; 10 μM ADU-S100,2.02
same,OASL avg log2FC,[1]; 10 μM ADU-S100,3.01
same,PLAAT4 avg log2FC,[1]; 10 μM ADU-S100,2.38
same,PLSCR1 avg log2FC,[1]; 10 μM ADU-S100,2.64
same,RSAD2 avg log2FC,[1]; 10 μM ADU-S100,4.43
same,SAA1 avg log2FC,[1]; 10 μM ADU-S100,2.46
same,STAT1 avg log2FC,[1]; 10 μM ADU-S100,2.09
same,TFPI2 avg log2FC,[1]; 10 μM ADU-S100,2.88
same,TNFSF13B avg log2FC,[1]; 10 μM ADU-S100,2.03
same,WARS avg log2FC,[1]; 10 μM ADU-S100,3.24
same,WFDC2 avg log2FC,[1]; 10 μM ADU-S100,2.06
same,IL-33 expression in CAFs,[1]; 24 hours,potent and unique STING agonist induction
same,"CXCR3 ligand expression (CXCL9, CXCL10, CXCL11)","[1]; 24 hours, primarily MSLN positive tumor cells (cluster 1) and CAFs (clusters 4, 5)",strongly induced
same,TGFB1 expression,"[1]; MPM cluster 1 relative to clusters 0, 3",downregulated
same,NECTIN2 (CD112) expression in tumor cells,[1]; NK cell activating ligand,increased
same,HLA-A/B/C expression in tumor cells,[1]; NK cell inhibitory ligands,dose-dependent increases
same,ANGPTL4 avg log2FC,[1]; STING agonist treatment,−1.48
same,CCDC80 avg log2FC,[1]; STING agonist treatment,−1.57
same,CEMIP avg log2FC,[1]; STING agonist treatment,−1.20
same,ID1 avg log2FC,[1]; STING agonist treatment,−1.07
same,IGFBP4 avg log2FC,[1]; STING agonist treatment,−1.42
same,KRT19 avg log2FC,[1]; STING agonist treatment,−1.81
same,LDHA avg log2FC,[1]; STING agonist treatment,−1.16
same,NDRG1 avg log2FC,[1]; STING agonist treatment,−1.07
same,PABPC1 avg log2FC,[1]; STING agonist treatment,−1.11
same,PGK1 avg log2FC,[1]; STING agonist treatment,−1.04
same,RPL41 avg log2FC,[1]; STING agonist treatment,−1.09
same,RPS29 avg log2FC,[1]; STING agonist treatment,−1.10
same,RPSA avg log2FC,[1]; STING agonist treatment,−1.10
same,SERPINB3 avg log2FC,[1]; STING agonist treatment,−2.15
same,SERPINB4 avg log2FC,[1]; STING agonist treatment,−1.25
same,SERPINB7 avg log2FC,[1]; STING agonist treatment,−1.73
same,TGFBI avg log2FC,[1]; STING agonist treatment,−2.38
same,TPI1 avg log2FC,[1]; STING agonist treatment,−1.11
same,TUBA1A avg log2FC,[1]; STING agonist treatment,−1.02
same,"abundance of CD8 positive cell populations, including Tregs",[1]; high-dose treatment,depletion
same,PVR (CD155) expression in tumor cells,[1]; predominantly inhibitory ligand,decreased expression
same,NK cell migration,[2],enhanced NK cell migration
